Reference: PubChem BioAssay (NCI)
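In this assay, cells in 96-well plates receive the compound at five concentrations for 48 hours. Endpoints are linearly interpolated between the surrounding concentrations. GI50 marks 50% less growth. Definition used: TGI = concentration required for complete inhibition of growth.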

Tests used:
Assay in all cases: NCI-60 cell line screen, 48 h
[1] = tested on: COLO 205 colon
[2] = tested on: DU-145 prostate
[3] = tested on: HS 578T breast
[4] = tested on: M14 melanoma
[5] = tested on: MDA-MB-231 breast
[6] = tested on: NCI-H23 lung
[7] = tested on: SF-268 CNS
[8] = tested on: SF-539 CNS
[9] = tested on: SK-MEL-28 melanoma
[10] = tested on: UO-31 renal

CC/C(=C(/c1ccc(OCCN(C)C)cc1)c1ccc(OC(=O)CCCCC(=O)c2c(C)[nH]c(/C=C3\N=C(c4ccc[nH]4)C=C3OC)c2C)cc1)c1ccccc1
GI50 [1]: 10.7 µM | TGI [1]: 23.2 µM | GI50 [2]: 7.73 µM | TGI [2]: 21.1 µM | GI50 [3]: 4.98 µM | TGI [3]: 47.6 µM | GI50 [4]: 1.84 µM | TGI [4]: 4 µM | GI50 [5]: 1.99 µM | TGI [5]: 11.4 µM | GI50 [6]: 12.7 µM | TGI [6]: 29.7 µM | GI50 [7]: 7.79 µM | TGI [7]: 30 µM | GI50 [8]: 7.32 µM | TGI [8]: 20.6 µM | GI50 [9]: 11.6 µM | TGI [9]: 23.7 µM | GI50 [10]: 2.81 µM | TGI [10]: 21.3 µM

O=C(Nc1ccc(OS(=O)(=O)c2ccccc2)cc1)C12CC3CC(CC(C3)C1)C2
GI50 [1]: 0.873 µM | TGI [1]: > 100 µM | GI50 [2]: > 100 µM | TGI [2]: > 100 µM | GI50 [3]: 7.29 µM | TGI [3]: > 100 µM | GI50 [4]: 7.2 µM | TGI [4]: > 100 µM | GI50 [5]: 3.79 µM | TGI [5]: > 100 µM | GI50 [6]: 6.68 µM | TGI [6]: > 100 µM | GI50 [7]: > 100 µM | TGI [7]: > 100 µM | GI50 [8]: 0.965 µM | TGI [8]: > 100 µM | GI50 [9]: > 100 µM | TGI [9]: > 100 µM | GI50 [10]: 18.7 µM | TGI [10]: > 100 µM

C[As](C)SC1OC(CO)C(O)C1O (stereo not given)
GI50 [1]: 0.505 µM | TGI [1]: 10.8 µM | GI50 [2]: 0.189 µM | TGI [2]: 0.799 µM | GI50 [3]: 0.968 µM | TGI [3]: 7.59 µM | GI50 [4]: 0.232 µM | TGI [4]: 0.767 µM | GI50 [5]: 0.725 µM | TGI [5]: 3.69 µM | GI50 [6]: 0.61 µM | TGI [6]: 3.89 µM | GI50 [7]: 0.998 µM | TGI [7]: 5.73 µM | GI50 [8]: 0.222 µM | TGI [8]: 0.749 µM | GI50 [9]: 0.522 µM | TGI [9]: 5.45 µM | GI50 [10]: 0.0973 µM | TGI [10]: 0.555 µM

CCOc1nc(-c2ccccc2)cc2c(O)c(-c3nnco3)[nH]c(=O)c12
GI50 [1]: 5.74 µM | TGI [1]: > 100 µM | GI50 [2]: 5.3 µM | TGI [2]: > 100 µM | GI50 [3]: 5.39 µM | TGI [3]: 30.1 µM | GI50 [4]: 7.12 µM | TGI [4]: > 100 µM | GI50 [5]: 1.66 µM | TGI [5]: > 29.8 µM | GI50 [6]: 4.01 µM | TGI [6]: > 100 µM | GI50 [7]: 5.62 µM | TGI [7]: > 100 µM | GI50 [8]: 4.39 µM | TGI [8]: > 47.1 µM | GI50 [9]: 30.9 µM | TGI [9]: > 100 µM | GI50 [10]: 2.11 µM | TGI [10]: > 100 µM

COc1ccc(C(=O)c2cc(OC)c(C)c(OC)c2)cc1OC(=O)CCl
GI50 [1]: 7.78 µM | TGI [1]: 69.4 µM | GI50 [2]: 0.322 µM | TGI [2]: 18.2 µM | GI50 [3]: 0.314 µM | TGI [3]: > 100 µM | GI50 [4]: 0.0693 µM | TGI [4]: 12.2 µM | GI50 [5]: 0.353 µM | TGI [5]: 18.6 µM | GI50 [6]: 0.558 µM | TGI [6]: > 100 µM | GI50 [7]: 1.33 µM | TGI [7]: > 100 µM | GI50 [8]: 0.172 µM | TGI [8]: 0.58 µM | GI50 [9]: 0.732 µM | TGI [9]: 40.4 µM | GI50 [10]: 0.628 µM | TGI [10]: 74 µM

CC(C)(C)C(=O)OCOP(=O)(OCOC(=O)C(C)(C)C)C1CCCN(O)C1=O (stereo not given)
GI50 [1]: 0.6 µM | TGI [1]: 3.64 µM | GI50 [2]: 0.831 µM | TGI [2]: > 100 µM | GI50 [3]: 0.314 µM | TGI [3]: 8.27 µM | GI50 [4]: 0.693 µM | TGI [4]: 14.1 µM | GI50 [5]: 0.397 µM | TGI [5]: 20 µM | GI50 [6]: 0.564 µM | TGI [6]: 3.4 µM | GI50 [7]: 0.441 µM | TGI [7]: 20.2 µM | GI50 [8]: 1.52 µM | TGI [8]: 11.8 µM | GI50 [9]: 0.321 µM | TGI [9]: 1.14 µM | GI50 [10]: 0.306 µM | TGI [10]: 6.41 µM

CC(SC(C)C(=O)N/N=C/c1cccc(Cl)c1)C(=O)N/N=C\c1cccc(Cl)c1 (stereo not given)
GI50 [1]: 11.6 µM | TGI [1]: 38.9 µM | GI50 [2]: 6.58 µM | TGI [2]: 25.2 µM | GI50 [3]: 5.62 µM | TGI [3]: 25.4 µM | GI50 [4]: 14.1 µM | TGI [4]: 35.5 µM | GI50 [5]: 5.87 µM | TGI [5]: 28.8 µM | GI50 [6]: 14 µM | TGI [6]: 32.6 µM | GI50 [7]: 10.2 µM | TGI [7]: 35.5 µM | GI50 [8]: 16.3 µM | TGI [8]: 44.2 µM | GI50 [9]: 15.2 µM | TGI [9]: 34.4 µM | GI50 [10]: 14.8 µM | TGI [10]: 94.4 µM

Oc1ccc(Cl)cc1Cc1cc(Cl)cc(Cl)c1O
GI50 [1]: 19.5 µM | TGI [1]: 36.6 µM | GI50 [2]: 4.94 µM | TGI [2]: 53.7 µM | GI50 [3]: 2.61 µM | TGI [3]: 8.97 µM | GI50 [4]: 4.61 µM | TGI [4]: 23 µM | GI50 [5]: 7.92 µM | TGI [5]: 48.1 µM | GI50 [6]: 3.32 µM | TGI [6]: 10.6 µM | GI50 [7]: 3.82 µM | TGI [7]: 57.9 µM | GI50 [8]: 2.33 µM | TGI [8]: 6.65 µM | GI50 [9]: 4.83 µM | TGI [9]: 31.7 µM | GI50 [10]: 3.48 µM | TGI [10]: 15.2 µM

O=c1c2ccccc2[se]n1-c1cccnc1
TGI [1]: 45.1 µM | TGI [2]: 34.6 µM | TGI [3]: 42.1 µM | TGI [4]: 83.7 µM | TGI [5]: 66.6 µM | TGI [6]: 53.2 µM | TGI [7]: 70.6 µM | TGI [8]: 56.5 µM | TGI [9]: 81 µM | TGI [10]: 93.7 µM

C=C(F)C(=O)N1CCN(c2nc(OC[C@@H]3CCCN3C)nc3c2CCN(c2cccc4cccc(Cl)c24)C3)C[C@@H]1CC#N
GI50 [1]: 0.578 µM | TGI [1]: 1.98 µM | GI50 [2]: 1.04 µM | TGI [2]: 2.87 µM | GI50 [3]: 1.76 µM | TGI [3]: 4.4 µM | GI50 [4]: 1.06 µM | TGI [4]: 2.34 µM | GI50 [5]: 0.752 µM | TGI [5]: 2.23 µM | GI50 [6]: < 0.01 µM | TGI [6]: 1.58 µM | GI50 [7]: 1.37 µM | TGI [7]: 3.37 µM | GI50 [8]: 0.936 µM | TGI [8]: 2.25 µM | GI50 [9]: 1.32 µM | TGI [9]: 2.72 µM | GI50 [10]: 1.13 µM | TGI [10]: 2.57 µM

CC(=O)OC1Oc2ccccc2-c2oc(=O)c(-c3cc(=O)oc4cc(O)ccc34)cc21 (stereo not given)
GI50 [1]: 18.2 µM | TGI [1]: 51.2 µM | GI50 [2]: 19.4 µM | TGI [2]: 50.5 µM | GI50 [3]: 17.9 µM | TGI [3]: 52 µM | GI50 [4]: 26.7 µM | TGI [4]: 83.9 µM | GI50 [5]: 24.9 µM | TGI [5]: 81.5 µM | GI50 [6]: 5.53 µM | TGI [6]: 25.6 µM | GI50 [7]: 26.2 µM | TGI [7]: 80.3 µM | GI50 [8]: 17.4 µM | TGI [8]: 38.2 µM | GI50 [9]: 34.5 µM | TGI [9]: > 100 µM | GI50 [10]: 22.2 µM | TGI [10]: 58.9 µM

Cn1cc(C2=C(c3ccc4ccccc4c3)C(=O)NC2=O)c2ccccc21
GI50 [1]: 20.8 µM | TGI [1]: > 25 µM | GI50 [2]: > 25 µM | TGI [2]: > 25 µM | GI50 [3]: > 17.7 µM | TGI [3]: > 25 µM | GI50 [4]: > 21 µM | TGI [4]: > 25 µM | GI50 [5]: > 25 µM | TGI [5]: > 25 µM | GI50 [6]: > 25 µM | TGI [6]: > 25 µM | GI50 [7]: > 25 µM | TGI [7]: > 25 µM | GI50 [8]: > 25 µM | TGI [8]: > 25 µM | GI50 [9]: > 25 µM | TGI [9]: > 25 µM | GI50 [10]: > 12.4 µM | TGI [10]: > 25 µM
